The values that follow come from patent US10322191B2, “Targeted conjugates and particles and formulations thereof” (TARVEDA THERAPEUTICS, INC., priority 2014, dated 2019).

Read-outs that look alike come from different tables or passages of the source. Bridge positions count the residues as written; N and C are the ends. Square brackets hold non-standard residues; d marks the D form. Peptide text beside a SMILES is read from it. * marks the point of attachment. NH(CH2)2SS(DM1) = COc1cc2cc(c1Cl)N(C)C(=O)C[C@H](OC(=O)[C@H](C)N(C)C(=O)CCSSCCN*)[C@]1(C)O[C@H]1[C@H](C)[C@@H]1C[C@@](O)(NC(=O)O1)[C@H](OC)/C=C/C=C(\C)C2; X1 = COc1cc2cc(c1Cl)N(C)C(=O)C[C@H](OC(=O)[C@H](C)N(C)C(=O)CCS*)[C@]1(C)O[C@H]1[C@H](C)[C@@H]1C[C@@](O)(NC(=O)O1)[C@H](OC)/C=C/C=C(\C)C2; Thr(ol) = C[C@@H](O)[C@H](N)CO

The assay has as its system NCI-H524 (ATCC) human lung cancer cells. It is filed as cell-based. As for the experimental part:
Conjugates were assessed in an in vitro assay evaluating inhibition of cell proliferation. NCI-H524 (ATCC) human lung cancer cells were plated in 96 well, V-bottomed plates (Costar) at a concentration of 5,000 cells/well and 24 hours later were treated with compound for 2 hours and further incubated 70 hours. Compound starting dose was 20 μM and three-fold serial dilutions were done for a total of ten points. After 2 hours of treatment, cells were spun down, the drug containing media was removed, and fresh complete medium was added and used to resuspend the cells, which were spun again. After removal of the wash media, the cells were resuspended in complete medium, then transferred into white walled, flat bottomed 96 well plates. […] Proliferation was measured using CellTiter Glo reagent using the standard protocol (Promega) and a Glomax multi+detection system (Promega). Percent proliferation inhibition was calculated using the following formula: % inhibition=(control-treatment)/control*100. Control is defined as vehicle alone. IC50 curves were generated using the nonlinear regression analysis (four parameter) with GraphPad Prism 6.
Conjugates of the present invention were assessed in an in vitro assay evaluating inhibition of cell proliferation. NCI-H524 (ATCC) human lung cancer cells were plated in 96 well, V-bottomed plates (Costar) at a concentration of 5,000 cells/well. 24 hours later, cells were treated with either conjugate for 2 hours and further incubated 70 hours, or for octreotide competition experiments, treated with 100 μM octreotide for 30 min, and then treated with conjugate for 2 hours, and further incubated for 70 hours. Conjugate starting dose was 20 μM and three fold serial dilutions were done for a total of ten points. After 2 hours of treatment, cells were spun down, the drug containing media was removed, and fresh complete medium was added and used to resuspend the cells, which were spun again. After removal of the wash media, the cells were resuspended in complete medium, then transferred into white walled, flat bottomed 96 well plates. […] Proliferation was measured using CellTiter Glo reagent using the standard protocol (Promega) and a Glomax multi+detection system (Promega). Percent proliferation inhibition was calculated using the following formula: % inhibition=(control-treatment)/control*100. Control is defined as vehicle alone. IC50 curves were generated using the nonlinear regression analysis (four parameter) with GraphPad Prism 6.
Conjugates of the present invention were tested for their activity dependence on the somatostatin receptor. Active agent Z in the conjugate was selected from auristatin, carbazitaxel, DM1, doxorubicin, platinum, SN-38 and vinblastine. Active agent Z is connected to octreotide with various linkers. Proliferation IC50 values of the conjugates were measured. Proliferation IC50 values of the conjugates without octreotide competition were also measured. The ratio of IC50 with octreotide competition and IC50 without octreotide competition is an indicator of whether activity is at least partially dependent on bind to the somatostatin receptor.

[1] abbreviates: Table 6, treated 2 hours, further incubated 70 hours, read-out: H524 IC50.
Where [2] appears, read: read-out: H524 IC50 + 100 μM octreotide, Table 6, with octreotide competition.
The mark [3] stands for this setting: Table 15, treated 2 hours, further incubated 70 hours, read-out: H524 IC50.
Setting [4] is: read-out: H524 IC50+ 100 uM octreotide, Table 15, 100 μM octreotide for 30 min, then conjugate 2 hours, 70 hours incubation.

The IC50 is the point on the concentration scale where inhibition reaches its midpoint. `CC[C@H](C)[C@@H]([C@@H](CC(=O)N1CCC[C@H]1[C@H](OC)[C@@H](C)C(=O)N[C@H](C)[C@@H](O)c1ccccc1)OC)N(C)C(=O)[C@@H](NC(=O)[C@H](C(C)C)N(C)C(=O)OCc1ccc(NC(=O)[C@H](CCCNC(N)=O)NC(=O)[C@@H](NC(=O)CCCCCN2C(=O)CC(SCCC(=O)N[C@H](Cc3ccccc3)C(=O)N[C@H]3CSSC[C@@H](C(=O)N[C@H](CO)[C@@H](C)O)NC(=O)[C@H]([C@@H](C)O)NC(=O)[C@H](CCCCN)NC(=O)[C@@H](Cc4c[nH]c5ccccc45)NC(=O)[C@H](Cc4ccccc4)NC3=O)C2=O)C(C)C)cc1)C(C)C` (some centres unmarked) [Conjugate 5]: the IC50 was determined as 433 nM under setting [1] and 826 nM under setting [2].

As to `COc1cc2cc(c1Cl)N(C)C(=O)C[C@H](OC(=O)[C@H](C)N(C)C(=O)CCSC1CC(=O)N(CC3CCC(C(=O)N[C@H](Cc4ccccc4)C(=O)N[C@H]4CSSC[C@@H](C(=O)N[C@H](CO)[C@@H](C)O)NC(=O)[C@H]([C@@H](C)O)NC(=O)[C@H](CCCCN)NC(=O)[C@@H](Cc5c[nH]c6ccccc56)NC(=O)[C@H](Cc5ccccc5)NC4=O)CC3)C1=O)[C@]1(C)O[C@H]1[C@H](C)[C@@H]1C[C@@](O)(NC(=O)O1)[C@H](OC)/C=C/C=C(\C)C2` (some centres unmarked) [Conjugate 104], the IC50 runs as follows: under setting [3], 279 nM; under setting [4], 705 nM.

For the compound `COc1cc2cc(c1Cl)N(C)C(=O)C[C@H](OC(=O)[C@H](C)N(C)C(=O)CCSSC(C)CCN[C@H](Cc1ccccc1)C(=O)N[C@H]1CSSC[C@@H](C(=O)N[C@H](CO)[C@@H](C)O)NC(=O)[C@H]([C@@H](C)O)NC(=O)[C@H](CCCCN)NC(=O)[C@@H](Cc3c[nH]c4ccccc34)NC(=O)[C@H](Cc3ccccc3)NC1=O)[C@]1(C)O[C@H]1[C@H](C)[C@@H]1C[C@@](O)(NC(=O)O1)[C@H](OC)/C=C/C=C(\C)C2` (some centres unmarked) [Conjugate 82], the IC50 reads like this: under setting [3], 148 nM; under setting [4], 867 nM.

In the case of `COc1cc2cc(c1Cl)N(C)C(=O)C[C@H](OC(=O)[C@H](C)N(C)C(=O)CCSSCCC(=O)N[C@H](Cc1ccccc1)C(=O)N[C@H]1CSSC[C@@H](C(=O)N[C@H](C(=O)O)[C@@H](C)O)NC(=O)[C@H]([C@@H](C)O)NC(=O)[C@H](CCCCN)NC(=O)[C@@H](Cc3c[nH]c4ccccc34)NC(=O)[C@H](Cc3ccc(O)cc3)NC1=O)[C@]1(C)O[C@H]1[C@H](C)[C@@H]1C[C@@](O)(NC(=O)O1)[C@H](OC)/C=C/C=C(\C)C2` [Conjugate 74], the half-maximal inhibitory concentration (IC50) worked out at 549 nM under setting [3] and 562 nM under setting [4].

As for `COc1cc2cc(c1Cl)N(C)C(=O)C[C@H](OC(=O)[C@H](C)N(C)C(=O)CCSSC[C@H](N)C(=O)N[C@@H](CCCCN)C(=O)N[C@@H](CCCCN)C(=O)N[C@@H](CCCCN)C(=O)N[C@@H](CCCCN)C(=O)N[C@H](Cc1ccccc1)C(=O)N[C@H]1CSSC[C@@H](C(=O)N[C@H](CO)[C@@H](C)O)NC(=O)[C@H]([C@@H](C)O)NC(=O)[C@H](CCCCN)NC(=O)[C@@H](Cc3c[nH]c4ccccc34)NC(=O)[C@H](Cc3ccccc3)NC1=O)[C@]1(C)O[C@H]1[C@H](C)[C@@H]1C[C@@](O)(NC(=O)O1)[C@H](OC)/C=C/C=C(\C)C2` [Conjugate 7] (H-C(X1)KKKK[dF]CF[dW]KTC[Thr(ol)]; disulfide 7-12), the IC50 was 955 nM under setting [1], 1770 nM under setting [2] and 1770 nM under setting [4].

For `COc1cc2cc(c1Cl)N(C)C(=O)C[C@H](OC(=O)[C@H](C)N(C)C(=O)CCSSCCNC(=O)[C@@H](NC(=O)[C@@H]1CSSC[C@H](NC(=O)[C@H](N)Cc3ccccc3)C(=O)N[C@@H](Cc3csc4ccccc34)C(=O)N[C@H](Cc3c[nH]c4ccccc34)C(=O)N[C@@H](CCCCN)C(=O)N[C@@H]([C@@H](C)O)C(=O)N1)[C@@H](C)O)[C@]1(C)O[C@H]1[C@H](C)[C@@H]1C[C@@](O)(NC(=O)O1)[C@H](OC)/C=C/C=C(\C)C2` [Conjugate 37], the IC50 came out at 44 nM under setting [3] and 166 nM under setting [4].

On to `COc1cc2cc(c1Cl)N(C)C(=O)C[C@H](OC(=O)[C@H](C)N(C)C(=O)CCSC1CC(=O)N(CCCNC(=O)CC[C@H]3C(=O)N[C@@H](Cc4ccc(O)cc4)C(=O)N[C@H](Cc4c[nH]c5ccccc45)C(=O)N[C@@H](CCCCN)C(=O)N[C@@H]([C@@H](C)O)C(=O)N[C@@H](Cc4ccccc4)C(=O)N3C)C1=O)[C@]1(C)O[C@H]1[C@H](C)[C@@H]1C[C@@](O)(NC(=O)O1)[C@H](OC)/C=C/C=C(\C)C2` (some centres unmarked) [Conjugate 12], for which the 50% inhibitory concentration (IC50) reads like this: under setting [3], 1680 nM; under setting [4], 2340 nM.

With `COc1cc2cc(c1Cl)N(C)C(=O)C[C@H](OC(=O)[C@H](C)N(C)C(=O)CCSSCCNC(=O)[C@@H]1CSSC[C@H](NC(=O)[C@H](N)Cc3ccccc3)C(=O)N[C@@H](Cc3ccc(O)cc3)C(=O)N[C@H](Cc3c[nH]c4ccccc34)C(=O)N[C@@H](CCCCN)C(=O)N[C@@H]([C@@H](C)O)C(=O)N1)[C@]1(C)O[C@H]1[C@H](C)[C@@H]1C[C@@](O)(NC(=O)O1)[C@H](OC)/C=C/C=C(\C)C2` [Conjugate 59] (H-[dF]CY[dW]KTC-{NH(CH2)2SS(DM1)}; disulfide 2-7), the half-maximal inhibitory concentration (IC50) under setting [3] was determined as 24 nM and the half-maximal inhibitory concentration (IC50) under setting [4] amounted to 170 nM.

Consider `COc1cc2cc(c1Cl)N(C)C(=O)C[C@H](OC(=O)[C@H](C)N(C)C(=O)CCSSCCC(=O)NCCOCCOCCOCCNC(=O)[C@@H](NC(=O)[C@@H]1CSSC[C@H](NC(=O)[C@H](N)Cc3ccccc3)C(=O)N[C@@H](Cc3ccc(O)cc3)CN[C@H](Cc3c[nH]c4ccccc34)C(=O)N[C@@H](CCCCN)C(=O)N[C@@H]([C@@H](C)O)C(=O)N1)[C@@H](C)O)[C@]1(C)O[C@H]1[C@H](C)[C@@H]1C[C@@](O)(NC(=O)O1)[C@H](OC)/C=C/C=C(\C)C2` [Conjugate 47], for which the concentration for half-maximal inhibition (IC50) runs as follows: under setting [3], 2130 nM; under setting [4], 1270 nM.

Turning to `COc1cc2cc(c1Cl)N(C)C(=O)C[C@H](OC(=O)[C@H](C)N(C)C(=O)CCSSC1CCN(C(=O)CC[C@H]3C(=O)N[C@@H](Cc4ccc(O)cc4)C(=O)N[C@H](Cc4c[nH]c5ccccc45)C(=O)N[C@@H](CCCCN)C(=O)N[C@@H]([C@@H](C)O)C(=O)N[C@@H](Cc4ccccc4)C(=O)N3C)CC1)[C@]1(C)O[C@H]1[C@H](C)[C@@H]1C[C@@](O)(NC(=O)O1)[C@H](OC)/C=C/C=C(\C)C2` [Conjugate 28], the IC50 runs as follows: under setting [3], 669 nM; under setting [4], 1000 nM.

As for `COc1cc2cc(c1Cl)N(C)C(=O)C[C@H](OC(=O)[C@H](C)N(C)C(=O)CCSC1CC(=O)N(CCCNC(=O)CC[C@H](NC(=O)[C@@H]3CSSC[C@H](NC(=O)[C@H](N)Cc4ccccc4)C(=O)N[C@@H](Cc4ccc(O)cc4)CN[C@H](Cc4c[nH]c5ccccc45)C(=O)N[C@@H](CCCCN)C(=O)N[C@@H]([C@@H](C)O)C(=O)N3)C(=O)NCCCN3C(=O)CC(SCCC(=O)N(C)[C@@H](C)C(=O)O[C@H]4CC(=O)N(C)c5cc(cc(OC)c5Cl)C/C(C)=C/C=C/[C@@H](OC)[C@@]5(O)C[C@H](OC(=O)N5)[C@@H](C)[C@@H]5O[C@@]45C)C3=O)C1=O)[C@]1(C)O[C@H]1[C@H](C)[C@@H]1C[C@@](O)(NC(=O)O1)[C@H](OC)/C=C/C=C(\C)C2` (some centres unmarked) [Conjugate 53], the half-inhibitory concentration (IC50) was 42 nM under setting [3] and 175 nM under setting [4].
